Assay results from ChEMBL document CHEMBL5150075 (J Med Chem, 2022).
Active and inactive are the calls of the source. The rule behind the calls is not given here.

How the values were obtained:
Tubulin (Homo sapiens) [1] = target: T1, Tubulin (Homo sapiens) (UniProt P68371+Q9H4B7+P0DPH7+P68366+Q13509+Q71U36+P04350+Q3ZCM7+P07437+P68363+Q9BQE3+Q6PEY2+Q13885+Q9BVA1+Q9BUF5); assay: Disruption of microtubule network in human DU-145 cells assessed as cell shrinkage at 0.1 uM incubated for 16 hrs by Hoechst staining based confocal microscopy analysis
[2] = target: Voltage-gated inwardly rectifying potassium channel KCNH2 (Homo sapiens, UniProt Q12809); assay: Inhibition of hERG expressed in CHO cells by whole cell patch clamp method; type: toxicity, cell-based
[3] = Cmax in Kunming mouse at 20 mg/kg, po by LC-MS/MS analysis; type: ADME, organism-based; design: dose 20 mg/kg, route po; details: in vivo
[4] = Toxicity in BALB/c nude mouse xenografted with human DU-145 cells assessed as reduction in body weight at 5 mg/kg, po administered once daily and measured twice a week; type: organism-based; details: in vivo
[5] = Stability in monkey liver microsomes assessed as half life incubated in presence of NADPH by LC-MS/MS analysis; type: ADME, Macaca mulatta, Microsome; details: rhesus monkey
DU-145 [6] = assay: Induction of apoptosis in human DU-145 cells assessed as early apoptotic cells at 0.3 uM incubated for 48 hrs by Annexin V-FITC/PI staining based flow cytometry analysis (reference value: 1.97%); type: functional
DU-145 [7] = assay: Induction of apoptosis in human DU-145 cells assessed as live cells at 0.3 uM incubated for 48 hrs by Annexin V-FITC/PI staining based flow cytometry analysis (reference value: 94.94%); type: functional
[8] = AUC (0 to t) in Kunming mouse at 20 mg/kg, po by LC-MS/MS analysis; type: ADME, organism-based; design: dose 20 mg/kg, route po; details: in vivo
HCT-8 = assay: Antiproliferative activity against human HCT-8 cells assessed as inhibition of cell growth incubated for 72 hrs by MTT assay; type: functional, cell-based; details: HCT-8, 72 h
DU-145 [9] = assay: Induction of apoptosis in human DU-145 cells assessed as late apoptotic cells at 0.03 uM incubated for 48 hrs by Annexin V-FITC/PI staining based flow cytometry analysis (reference value: 2.05%); type: functional
Tubulin (Homo sapiens) [10] = target: T1, Tubulin (Homo sapiens); assay: Disruption of microtubule network in human DU-145 cells assessed as reduction in acetyl-alpha tubulin expression by Western blot analysis; type: cell-based; details: dose 0.03-0.3 µM
[11] = AUC (0 to t) in Kunming mouse at 2 mg/kg, iv by LC-MS/MS analysis; type: ADME, organism-based; design: dose 2 mg/kg, route iv; details: in vivo
MCF7 = assay: cells; details: Homo sapiens, MCF7, 72 h
Description: Antiproliferative activity against human MCF7 cells assessed as inhibition of cell growth incubated for 72 hrs by MTT assay

DU-145 [12] = assay: Induction of apoptosis in human DU-145 cells assessed as dead cells at 0.03 uM incubated for 48 hrs by Annexin V-FITC/PI staining based flow cytometry analysis (reference value: 1.05%); type: functional
Bos taurus = organism: Bos taurus; assay: Inhibition of bovine brain tubulin polymerization measured every 30 secs by absorbance based analysis; details: dose 1-10 µM, time 30.0 sec, DDE = dose-dependent effect
[13] = Mutagenicity in Salmonella typhimurium TA-102 at 0.5 to 500 ug per plate incubated for 72 hrs in presence or absence of S9 fraction by Ames test; type: toxicity, Salmonella enterica subsp. enterica serovar Typhimurium; details: in vivo, dose 0.5-500 µg
[14] = Oral bioavailability in Kunming mouse at 20 mg/kg by LC-MS/MS analysis; type: ADME, organism-based; details: in vivo
DU-145 [15] = assay: Induction of apoptosis in human DU-145 cells assessed as increase in cleaved PARP level at 0.003 to 0.3 uM incubated for 48 hrs by Western blot analysis; type: functional, cell-based; details: dose 0.003-0.3 µM
[16] = Tmax in Kunming mouse at 20 mg/kg, po by LC-MS/MS analysis; type: ADME, organism-based; details: in vivo
DU-145 [17] = assay: Antitumor activity against human DU-145 cells xenografted in BALB/c nude mouse assessed as tumor growth inhibition at 10 mg/kg, po administered once daily and measured twice a week relative to control; type: functional; details: read-out: TGI
[18] = Toxicity in BALB/c nude mouse xenografted with human NCI-H1299 cells assessed as reduction in body weight at 10 to 20 mg/kg, po administered once daily and measured twice a week; type: organism-based; details: in vivo, dose 10-20 mg/kg
HGC-27 = assay: Antiproliferative activity against human HGC-27 cells assessed as inhibition of cell growth incubated for 72 hrs by MTT assay; type: functional, cell-based; details: HGC-27, 72 h
[19] = Mutagenicity in Salmonella typhimurium TA-1535 at 0.5 to 500 ug per plate incubated for 72 hrs in presence or absence of S9 fraction by Ames test; type: toxicity, Salmonella enterica subsp. enterica serovar Typhimurium; details: in vivo, dose 0.5-500 µg
[20] = Resistance index, ratio of IC50 for antiproliferative activity against paclitaxel-resistant human A549 cells to IC50 for antiproliferative activity against human A549 cells; type: functional
DU-145 [21] = assay: Induction of apoptosis in human DU-145 cells assessed as live cells at 0.1 uM incubated for 48 hrs by Annexin V-FITC/PI staining based flow cytometry analysis (reference value: 94.94%); type: functional
Tubulin (Homo sapiens) [22] = target: T1, Tubulin (Homo sapiens); assay: Inhibition of tubulin polymerization in human DU-145 cells assessed as inhibition of tubulin assembly at 0.1 uM incubated for 16 hrs by Hoechst staining based confocal microscopy analysis; type: cell-based
DU-145 [23] = assay: Induction of G2/M phase cell cycle arrest in human DU-145 cells assessed as increase in histone H3 phosphorylation at Ser10 residue at 0.03 to 0.3 uM measured after 12 hrs by Western blot analysis; type: functional, cell-based; details: dose 0.03-0.3 µM
[24] = Toxicity in specific pathogen-free Kunming mouse assessed as pathological changes in liver at 10 mg/kg, po administered once daily and measured after 7 days by hematoxylin and eosin staining based analysis; type: organism-based; details: in vivo, 168 h, time 7 day
[25] = Toxicity in specific pathogen-free Kunming mouse assessed as pathological changes in kidney at 10 mg/kg, po administered once daily and measured after 7 days by hematoxylin and eosin staining based analysis; type: organism-based; details: in vivo, 168 h, time 7 day
[26] = Stability in rat liver microsomes assessed as half life incubated in presence of NADPH by LC-MS/MS analysis; type: ADME, Microsome
A549 [27] = assay: Antitumor activity against paclitaxel-resistant human A549 cells xenografted in BALB/c nude mouse assessed as tumor growth inhibition at 20 mg/kg, po administered once daily and measured twice a week relative to control; type: functional; details: read-out: TGI
[28] = Cytotoxicity against African green monkey Vero cells assessed as reduction in cell viability measured after 48 hrs; type: toxicity, cell-based, Chlorocebus sabaeus
A549 [29] = assay: cells; details: Homo sapiens, A549, 72 h
B16-F10 = assay: Antiproliferative activity against mouse B16-F10 cells assessed as inhibition of cell growth incubated for 72 hrs by MTT assay; type: functional, cell-based; details: B16-F10, 72 h
[30] = Stability in human liver microsomes assessed as half life incubated in presence of NADPH by LC-MS/MS analysis; type: ADME, Microsome
DU-145 [31] = assay: Induction of apoptosis in human DU-145 cells assessed as dead cells at 0.1 uM incubated for 48 hrs by Annexin V-FITC/PI staining based flow cytometry analysis (reference value: 1.05%); type: functional
[32] = Resistance index, ratio of IC50 for antiproliferative activity against paclitaxel-resistant human MCF7R cells to IC50 for antiproliferative activity against human MCF7 cells; type: functional

Chain of Voltage-gated inwardly rectifying potassium channel KCNH2 (Q12809 whole entry): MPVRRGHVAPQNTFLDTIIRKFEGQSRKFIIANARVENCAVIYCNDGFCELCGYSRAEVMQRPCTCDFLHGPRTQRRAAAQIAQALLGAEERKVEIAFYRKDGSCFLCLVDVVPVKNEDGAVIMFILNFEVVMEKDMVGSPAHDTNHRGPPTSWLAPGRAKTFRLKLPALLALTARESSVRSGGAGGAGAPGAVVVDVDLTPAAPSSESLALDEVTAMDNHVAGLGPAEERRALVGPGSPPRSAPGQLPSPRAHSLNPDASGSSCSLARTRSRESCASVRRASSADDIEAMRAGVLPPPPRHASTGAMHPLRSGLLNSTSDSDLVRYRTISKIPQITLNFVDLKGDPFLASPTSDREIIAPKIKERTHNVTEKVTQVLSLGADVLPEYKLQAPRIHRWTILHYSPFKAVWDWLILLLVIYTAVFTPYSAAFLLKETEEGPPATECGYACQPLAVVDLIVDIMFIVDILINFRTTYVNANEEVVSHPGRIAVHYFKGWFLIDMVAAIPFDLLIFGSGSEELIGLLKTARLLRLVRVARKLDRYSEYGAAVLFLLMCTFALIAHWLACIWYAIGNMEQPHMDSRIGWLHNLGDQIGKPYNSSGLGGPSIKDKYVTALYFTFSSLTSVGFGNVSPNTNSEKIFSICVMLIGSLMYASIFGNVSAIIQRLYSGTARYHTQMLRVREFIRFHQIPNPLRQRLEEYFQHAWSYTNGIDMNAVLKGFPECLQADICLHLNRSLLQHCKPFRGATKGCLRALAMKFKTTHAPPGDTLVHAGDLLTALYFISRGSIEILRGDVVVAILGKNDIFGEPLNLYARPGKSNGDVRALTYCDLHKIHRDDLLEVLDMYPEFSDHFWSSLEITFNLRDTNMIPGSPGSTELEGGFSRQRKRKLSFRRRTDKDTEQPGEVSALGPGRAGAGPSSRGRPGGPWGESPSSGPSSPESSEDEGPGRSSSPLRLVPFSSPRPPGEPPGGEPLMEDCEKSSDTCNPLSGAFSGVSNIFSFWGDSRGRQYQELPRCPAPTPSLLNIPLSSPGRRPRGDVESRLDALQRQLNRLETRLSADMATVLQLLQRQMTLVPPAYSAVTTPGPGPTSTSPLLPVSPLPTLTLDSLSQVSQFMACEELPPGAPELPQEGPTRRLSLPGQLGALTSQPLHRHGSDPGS

## Cc1ccc(S(=O)(=O)Nc2cc(C(=O)NCc3ccc(C)nc3)ccc2C)cc1
Tubulin (Homo sapiens) [1]
  Activity: Active
[2]
  IC50: > 10000 nM
[3]
  Cmax: 2740 ng/mL
[4]
  Activity: Non-Toxic
[5]
  half-life: 95 min
DU-145 [6]
  Activity: 26.3%
DU-145 [7]
  Activity: 37.88%
[8]
  AUC(0-t): 2580 ng·h/mL
HCT-8
  IC50: 22 nM
DU-145 [9]
  Activity: 9.5%
Tubulin (Homo sapiens) [10]
  Activity: Active
[11]
  AUC(0-t): 534 ng·h/mL
MCF7
  IC50: 6 nM
DU-145 [12]
  Activity: 2.95%
Bos taurus
  inhibition: Dde
[13]
  Activity: Non-Toxic
[14]
  bioavailability: 48.2%
DU-145 [15]
  Activity: Active
[16]
  Tmax: 4.98 min
DU-145 [17]
  inhibition in vivo at 10 mg/kg: 62.8%
[18]
  Activity: Toxic
HGC-27
  IC50: 6 nM
[19]
  Activity: Non-Toxic
[20]
  Ratio IC50: 1.2
DU-145 [21]
  Activity: 43.52%
Tubulin (Homo sapiens) [22]
  inhibition: Active
DU-145 [23]
  Activity: Active
[24]
  Activity: Non-Toxic
[25]
  Activity: Non-Toxic
[26]
  half-life: 2.3 min
A549 [27]
  inhibition in vivo at 20 mg/kg: 74.8%
[28]
  IC50 at 48 h: 40 nM
A549 [29]
  IC50: 25 nM
B16-F10
  IC50: 2 nM
[30]
  half-life: 24 min
DU-145 [31]
  Activity: 5.08%
[32]
  Ratio IC50: 2.48
